Data: patent US6492563B2, “Fragrance precursors” (Givaudan SA, priority 2000, dated 2002)

How the values were obtained:
Format in all cases: physicochemical
[1] = Photolysis of phenacyl acetals (I) in solution, mercury lamp, GC-FID; set-up: key: 0: no cleavage; +: slow cleavage; ++: medium cleavage; +++: fast cleavage; settings: solution (ethanol), mercury lamp 150 W, Pyrex, one hour irradiation
Procedure: Photorelease assays were conducted on solutions (typical concentrations of precursors (I): 0.05% to 0.1% g/v) in organic solvents (preferably ethanol) or on cotton towels after deposition of the phenacyl acetals (I), as described below in the example 3.
The solutions were irradiated with a mercury lamp (150 W) in a borosilicate glass apparatus (Pyrex®) so as to limit the irradiation window to mainly the UVA and UVB spectrum of sun light. The alcoholic solution was irradiated for one hour and samples taken every 15 minutes to analyze the extent of the photolysis.
The presence of the aryl ketone (II) and ester (III) after photolysis in solutions was determined by using GC retention times. Samples (0.2 μl) were injected (on column injection) without further dilution. Gas chromatography-flame ionization detection (GC-FID) was carried out with a Fisons-GC 8000 series apparatus, using a J&W Scientific DB-5 capillary column (30 m, 0.32 mm id, 0.25 μm film, He carrier gas, 85 kPa).
Whereas precursors derived from Oranger Crystals® cleaved fairly slowly (FIG. 1), those derived from acetanisole cleaved fast and Fixolide® precursors even faster. The rates are calculated from the GC analysis (corresponding peak area).

[2] = Hand washing tests: partition between water and fabric (substantivity), HPLC; settings: for Amounts recovered: Water: extract of aqueous washing liquor after hand washing; for Amounts recovered: Water, % (±10%): extract of aqueous washing liquor; for Amounts recovered: Water, % (±10%) / Amounts recovered: Towel extract, % (±10%): of amount incorporated; for Amounts recovered: Towel extract: extract of dried towels after hand washing; for Amounts recovered: Towel extract, % (±10%): extract of dried towels
Procedure: (§1) Washing tests were performed according to the following hand washing test cedure with OMO Progress® base which contains the following ingredients:
(§2) 1- The washing powder (2.1 g) containing the phenacyl acetal (I, about 21 mg, 1%) was dissolved in water (500 ml) at room temperature.
2- The towels (35 g) were added to the liquor and mixed with a glass stick.
3- Towels were soaked for 45 minutes with stirring every 15 minutes.
4- The wringed towels were rinsed three times with fresh water (250 ml) with intermediate wringing.
5- Towels were allowed to dry in a dark and odorless place before analysis or evaluation.
The towels were extracted with an organic solvent (preferably t-butyl methyl ether) using a Dionex ASE200 Accelerated Solvent Extractor and the extracts were analyzed by HPLC (Hewlett Packard Series 1100, column: Zorbax Eclipse XDB-C18, dimensions 15 cm×4.6 mm×5 μm).
The washing liquor was extracted with an organic solvent (preferably t-butyl methyl ether, 250 ml) and analyzed by HPLC as above.
The aqueous liquors were extracted with an organic solvent (preferably t-butyl methyl ether) and analytical HPLC gave the results in table 5, which are related to partition between water and fabric.

[3] = Stability tests in aqueous buffer solutions; settings: for Stability at pH 2.5: aqueous buffer pH 2.5, 24 h at 37° C.; for Stability at pH 7: aqueous buffer pH 7, 24 h at 37° C.; for Stability at pH 9.5: aqueous buffer pH 9.5, 24 h at 37° C.
[4] = Stability in washing liquor (washing conditions, OMO Progress base), HPLC; settings: for Stability at pH 11: pH 11, washing conditions as in example 5; for Amount ecovered / Recovered: washing liquor stirred one hour at room temperature; for Amount ecovered: extraction, HPLC; for Recovered: relative to amount incorporated
Procedure: as §1, §2
The washing liquor (2.1 g washing powder containing 1% phenacyl acetal (I) in 500 ml water), according to 1 in the above described washing procedure, was stirred during one hour at room temperature. Extraction with an organic solvent (preferably t-butyl methyl ether) to recover organic compounds and analysis with HPLC gave the amounts of recovered phenacyl acetal (I), table 4.

SMILES | UV-test (release of aryl ketone (II) and ester (III), cleavage) [1] | Amounts recovered: Water [2] [mg] | Amounts recovered: Water, % (±10%) [2] [%] | Amounts recovered: Towel extract [2] [mg] | Amounts recovered: Towel extract, % (±10%) [2] [%] | Stability at pH 2.5 [3] | Stability at pH 7 [3] | Stability at pH 9.5 [3] | Stability at pH 11 [4] | Amount ecovered [4] [mg] | Recovered [4] [%]
COc1ccc(C(=O)COC(C)OCCC(C)CC(C)(C)C)cc1 (centres unmarked) [compound 4, 1-(4-Methoxy-phenyl)-2-[1-(3,5,5-trimethyl-hexyloxy)-ethoxyl]-ethanone] | ++ | 17.5 | 75 | 8.9 | 38 | unstable | stable | stable | stable | 23.5 | 100
COc1ccc(C(=O)COC(C)OCCc2ccccc2)cc1 (centres unmarked) [compound 2, 1-(4-Methoxy-phenyl)-2-(1-phenethyloxy-ethoxy)-ethanone] | ++ | 15 | 63 | 10.5 | 44 | unstable | stable | stable | stable | 18.5 | 83
CC/C=C\CCOC(C)OCC(=O)c1ccc(OC)cc1 (centres unmarked) [compound 3, 2-(1-Hex-3(Z)-enyloxy-ethoxy)-1-(4-methoxy-phenyl)-ethanone] | ++ | 13.3 | 59 | 14 | 62 | unstable | stable | stable | stable | 22.3 | 100
CCCCCCOC(C)OCC(=O)c1ccc(OC)cc1 (centres unmarked) [compound 5, 2-(1-Hexyloxy-ethoxy)-1-(4-methoxy-phenyl)-ethanone] | ++ | 18.4 | 73 | 11.7 | 46 | unstable | stable | stable | stable | 25.7 | 100
COc1ccc(C(=O)COC(C)OCCCc2ccccc2)cc1 (centres unmarked) [compound 6, 1-(4-Methoxy-phenyl)-2-[1-(3-phenyl-propoxy)-ethoxy]-ethanone] | ++ | 14.5 | 65 | 17 | 47 | unstable | stable | stable | stable | 20.8 | 94
CCOC(C)OCC(=O)c1ccc(OC)cc1 (centres unmarked) [compound 1, 2-(1-Ethoxy-ethoxy)-1-(4-methoxy-phenyl)-ethanone] | ++ | – | – | – | – | unstable | stable | stable | – | – | –

Other lines, results leading:

UV-test (release of aryl ketone (II) and ester (III), cleavage) [1] | Amounts recovered: Water [2] [mg] | Amounts recovered: Water, % (±10%) [2] [%] | Amounts recovered: Towel extract [2] [mg] | Amounts recovered: Towel extract, % (±10%) [2] [%] | Stability at pH 2.5 [3] | Stability at pH 7 [3] | Stability at pH 9.5 [3] | Stability at pH 11 [4] | Amount ecovered [4] [mg] | Recovered [4] [%] | SMILES
++ | – | – | – | – | – | – | – | – | – | – | COc1ccc(C(=O)COC(Cc2ccccc2)OC)cc1 (centres unmarked) [compound 15, 1-(4-Methoxy-phenyl)-2-(1-methoxy-2-phenyl-ethoxy)-ethanone]
+++ | 16.3 | 69 | 8.7 | 42 | stable | stable | stable | stable | 22.2 | 99 | CCCCCCOC(C)OCC(=O)c1cc2c(cc1C)C(C)(C)C(C)CC2(C)C (centres unmarked) [compound 8, 1-(3,5,5,6,8,8-Hexamethyl-5,6,7,8-tetrahydro-naphthalen-2-yl)-2-(1-hexyloxy-ethoxy)-ethanone]
+++ | 15.3 | 67 | 10.3 | 45 | stable | stable | stable | stable | 20.0 | 96 | CC/C=C\CCOC(C)OCC(=O)c1cc2c(cc1C)C(C)(C)C(C)CC2(C)C (centres unmarked) [compound 9, 1-(3,5,5,6,8,8-Hexamethyl-5,6,7,8-tetrahydro-naphthalen-2-yl)-2-(1-hex-3(Z)-enyloxy-ethoxy)-ethanone]
++ | – | – | – | – | – | – | – | – | – | – | COc1ccc(C(=O)COC(C)OCCC(C)CCC=C(C)C)cc1 (centres unmarked) [compound 7, 2-[1-(3,7-Dimethyl-oct-6-enyloxy)-ethoxy]-1-(4-methoxy-phenyl)-ethanone]
+ | – | – | – | – | – | – | – | – | – | – | CCCCCCOC(C)OCC(=O)c1ccc2ccccc2c1 (centres unmarked) [compound 11, 2-(1-Hexyloxy-ethoxy)-1-naphthalen-2-yl-ethanone]
+ | – | – | – | – | – | – | – | – | – | – | CC(C)=CCCC(C)CCOC(C)OCC(=O)c1ccc2ccccc2c1 (centres unmarked) [compound 12, 2-[1-(3,7-Dimethyl-oct-6-enyloxy)-ethoxy-]1-naphthalen-2-yl-ethanone]
+++ | – | – | – | – | – | – | – | – | – | – | CCOC(C)OCC(=O)c1cc2c(cc1C)C(C)(C)C(C)CC2(C)C (centres unmarked) [compound 10, 2-(1-Ethoxy-ethoxy)-1-(3,5,5,6,8,8-hexamethyl-5,6,7,8-tetrahydro-naphthalen-2-yl)-ethanone]
